{"source": "ChEMBL document CHEMBL1201862", "about": "“PubChem BioAssay data set” (2004)", "key": {"[1]": {"assay": "NIH-3T3 fibroblast cytotoxicity, dose response, cytotoxicity control, cell-based, fluorescence, Alamar Blue, secondary assay (AID 2327);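 further: NIH-3T3 mouse fibroblasts cultured with fluconazole at 8 µg/mL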", "format": "functional"}, "[2]": {"assay": "C. albicans growth with fluconazole, confirmation, fluorescence, retest (AID 2467)", "format": "functional, cell-based"}, "[3]": {"target": "ATP-dependent molecular chaperone HSP82 (Candida albicans (strain WO-1) (Yeast), UniProt C4YTQ8)", "sequence (C4YTQ8 whole entry)": "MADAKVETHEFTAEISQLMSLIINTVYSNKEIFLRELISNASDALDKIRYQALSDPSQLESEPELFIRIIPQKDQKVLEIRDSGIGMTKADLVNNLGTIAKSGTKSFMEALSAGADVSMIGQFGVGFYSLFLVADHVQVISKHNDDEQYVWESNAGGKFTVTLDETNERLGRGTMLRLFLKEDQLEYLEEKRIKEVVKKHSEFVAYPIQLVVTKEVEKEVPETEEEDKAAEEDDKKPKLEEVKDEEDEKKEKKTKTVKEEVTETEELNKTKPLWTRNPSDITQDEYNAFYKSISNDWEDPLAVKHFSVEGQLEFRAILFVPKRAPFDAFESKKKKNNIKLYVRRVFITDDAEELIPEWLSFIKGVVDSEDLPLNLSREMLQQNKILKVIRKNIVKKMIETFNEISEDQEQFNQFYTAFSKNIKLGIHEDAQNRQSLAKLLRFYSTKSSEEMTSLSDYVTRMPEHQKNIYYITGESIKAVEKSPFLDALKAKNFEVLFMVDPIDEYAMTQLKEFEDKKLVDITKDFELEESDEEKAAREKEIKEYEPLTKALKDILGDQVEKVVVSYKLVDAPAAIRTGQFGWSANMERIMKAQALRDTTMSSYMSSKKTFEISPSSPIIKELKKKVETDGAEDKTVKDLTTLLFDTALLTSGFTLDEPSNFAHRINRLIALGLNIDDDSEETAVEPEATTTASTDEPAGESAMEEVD", "assay": "loss of DOC-induced GRE-beta-galactosidase reporter signal, dose response, Hsp90 inhibitor project, S. cerevisiae, luminescence (AID 2400);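 further: beta-galactosidase luminescence from glucocorticoid response element reporter as proxy for Hsp90 function; inhibitor potency where signal loss means Hsp90 inhibition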", "format": "functional, cell-based"}, "[4]": {"target": "T1, Serine/threonine-protein phosphatase (Candida dubliniensis (strain CD36 / CBS 7987 / NCPF 3949 / NRRLY-17841) (Yeast), UniProt B9W6M3)", "T1 sequence (B9W6M3 whole entry)": "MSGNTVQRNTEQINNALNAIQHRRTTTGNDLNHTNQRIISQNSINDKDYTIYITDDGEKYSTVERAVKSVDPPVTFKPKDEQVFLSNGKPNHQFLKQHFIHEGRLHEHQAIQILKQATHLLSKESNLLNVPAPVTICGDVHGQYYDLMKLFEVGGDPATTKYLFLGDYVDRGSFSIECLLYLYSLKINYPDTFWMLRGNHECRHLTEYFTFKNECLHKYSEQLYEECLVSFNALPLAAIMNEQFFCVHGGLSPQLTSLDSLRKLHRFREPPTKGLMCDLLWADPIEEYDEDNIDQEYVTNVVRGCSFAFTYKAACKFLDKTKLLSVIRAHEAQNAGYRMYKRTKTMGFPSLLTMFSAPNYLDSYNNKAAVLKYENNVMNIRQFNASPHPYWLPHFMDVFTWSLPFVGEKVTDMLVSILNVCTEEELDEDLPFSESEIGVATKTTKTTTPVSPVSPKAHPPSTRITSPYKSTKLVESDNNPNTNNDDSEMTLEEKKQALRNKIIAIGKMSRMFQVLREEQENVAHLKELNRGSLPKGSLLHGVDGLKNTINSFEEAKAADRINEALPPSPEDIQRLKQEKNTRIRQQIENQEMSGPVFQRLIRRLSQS", "assay": "calcineurin pathway inhibitors in yeast reporter, dose response, S. cerevisiae, CDRE-lacZ, luminescence, secondary (AID 2388);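 further: yeast reporter cells carrying a calcineurin-responsive lacZ construct stimulated with calcium chloride; luminescent beta-galactosidase reporter signal in whole cells rather than isolated phosphatase activity; potency for inhibition where a drop in reporter signal means calcineurin blockade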", "format": "functional, cell-based"}, "[5]": {"assay": "HepG2 cell cytotoxicity, dose response, cytotoxicity control for Shn3 inhibitor project, CellTiter-Glo, cherry-picked (AID 624134)", "format": "functional, cell-based"}, "[6]": {"target": "T2, DNA repair protein RAD52 homolog (Homo sapiens, UniProt P43351)", "T2 sequence (P43351 whole entry)": "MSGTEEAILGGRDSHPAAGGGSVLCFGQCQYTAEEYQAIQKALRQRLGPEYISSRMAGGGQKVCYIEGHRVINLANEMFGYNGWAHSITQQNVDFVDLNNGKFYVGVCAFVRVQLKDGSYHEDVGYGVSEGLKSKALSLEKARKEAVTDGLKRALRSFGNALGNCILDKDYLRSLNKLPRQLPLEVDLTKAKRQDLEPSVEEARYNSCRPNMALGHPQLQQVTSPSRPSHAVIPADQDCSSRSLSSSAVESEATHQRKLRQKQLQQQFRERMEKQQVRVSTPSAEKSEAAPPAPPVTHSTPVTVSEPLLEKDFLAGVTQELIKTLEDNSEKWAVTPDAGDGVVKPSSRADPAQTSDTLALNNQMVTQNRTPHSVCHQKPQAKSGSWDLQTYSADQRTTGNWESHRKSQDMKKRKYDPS", "format": "functional, biochemical"}, "[7]": {"system": "HEK293", "assay": "cells", "conditions": "Homo sapiens"}, "[8]": {"system": "HEK293", "assay": "cells", "conditions": "Homo sapiens", "remark": "listed apart in the source"}, "[9]": {"assay": "Shn3 3'UTR reporter inhibitors, dose response, cell-based, Clone20 osteoblasts, firefly luciferase, cherry-picked (AID 624132)", "format": "functional"}, "[10]": {"assay": "control 3'UTR Renilla luciferase suppression, dose response, counter-screen for Shn3 inhibitor project, cell-based, Clone20-Shn3RL, cherry-picked (AID 624133)", "format": "functional"}, "[11]": {"system": "Escherichia coli", "assay": "microbe, parasite or virus in culture"}, "[12]": {"system": "Streptococcus sp. 'group A'", "assay": "growth inhibition of control SK(-) GAS strain, dose response, counter-screen for streptokinase expression inhibitor project, luminescence, kanamycin, BacTiterGlo, confirmation (AID 1900)", "format": "functional, organism-based"}, "[13]": {"system": "Streptococcus", "assay": "Group A Streptococcus viability loss, dose response, counter-screen for streptokinase expression inhibitor project, luminescence, BacTiterGlo (AID 1915);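 further: potency for reduction of bacterial viability or growth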", "format": "functional, organism-based"}, "[14]": {"target": "T3, Streptokinase A (Streptococcus pyogenes serotype M1, UniProt P10520)", "T3 sequence (P10520 whole entry)": "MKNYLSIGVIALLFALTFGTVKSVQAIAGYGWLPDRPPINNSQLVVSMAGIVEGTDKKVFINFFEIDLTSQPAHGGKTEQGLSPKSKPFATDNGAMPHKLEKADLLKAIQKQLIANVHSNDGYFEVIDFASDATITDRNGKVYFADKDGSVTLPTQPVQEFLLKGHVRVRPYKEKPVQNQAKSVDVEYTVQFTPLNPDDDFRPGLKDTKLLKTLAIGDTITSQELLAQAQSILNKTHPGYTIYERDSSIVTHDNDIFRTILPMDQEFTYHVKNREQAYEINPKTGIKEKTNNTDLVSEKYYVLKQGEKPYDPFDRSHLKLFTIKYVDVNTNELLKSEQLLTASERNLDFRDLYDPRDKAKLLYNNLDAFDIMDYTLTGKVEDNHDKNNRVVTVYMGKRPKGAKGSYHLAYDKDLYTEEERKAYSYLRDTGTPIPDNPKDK", "assay": "S. pyogenes streptokinase expression inhibitors, potency, dose response, plasminogen activation absorbance, OD405 (AID 1914);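 further: secreted streptokinase activity via plasminogen activation per viability signal from cell pellet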", "format": "functional, Streptococcus pyogenes M1 GAS"}}, "note": "The source made the active and inactive calls.", "data": [{"compound": "CC(CC(=O)Nc1ncc([N+](=O)[O-])s1)c1ccccc1", "note": "(stereo unspecified)", "values": [{"measurement": "EC50", "setting": "[1]", "value": "> 150 µM (inactive)"}, {"measurement": "EC50", "setting": "[2]", "value": "0.76 µM (active)"}, {"measurement": "EC50", "setting": "[3]", "value": "> 160 µM (inactive)"}, {"measurement": "EC50", "setting": "[4]", "value": "> 180 µM (inactive)"}]}, {"compound": "CN(C)CCNC(=O)c1cccc2nc3cccc(F)c3nc12", "values": [{"measurement": "AC50", "setting": "[5]", "value": "4.69 µM (active)"}, {"measurement": "AC50", "setting": "[6]", "value": "4.63 µM (active)"}, {"measurement": "EC50", "setting": "[7]", "value": "> 59.6 µM (inactive)"}, {"measurement": "EC50", "setting": "[8]", "value": "> 59.6 µM (inactive)"}, {"measurement": "AC50", "setting": "[9]", "value": "13.7 µM (active)"}, {"measurement": "AC50", "setting": "[10]", "value": "23.8 µM (active)"}]}, {"compound": "CCN(CC)S(=O)(=O)c1cc(NC(=O)CSCc2c(C)noc2C)ccc1C", "values": [{"measurement": "EC50", "setting": "[7]", "value": "> 59.6 µM (inactive)"}, {"measurement": "EC50", "setting": "[8]", "value": "> 59.6 µM (inactive)"}]}, {"compound": "Cc1cc(-c2c(C)[nH]n(-c3ccc(Cl)cc3)c2=O)n(-c2ccc(Cl)cc2)n1", "values": [{"measurement": "AC50", "setting": "[11]", "value": "46.2 µM (active)"}, {"measurement": "EC50", "setting": "[12]", "value": "17.8 µM (active)"}, {"measurement": "EC50", "setting": "[13]", "value": "62.8 µM (active)"}, {"measurement": "EC50", "setting": "[14]", "value": "> 150 µM (not active)"}]}]}
